Values of other authors, collected in patent EP3156049A1, “PHARMACEUTICAL COMPOSITION OF PRASUGREL” (Alembic Pharmaceuticals Limited, priority 2015, dated 2017).
Read-outs that look alike come from different tables or passages of the source.

- Solubility (pH 2): soluble
- Solubility (pH 3 to 4): slightly soluble
- Solubility (pH 6 to 7.5): practically insoluble
Compound: CC(=O)Oc1cc2c(s1)CCN(C(C(=O)C1CC1)c1ccccc1F)C2.Cl (racemic) [Prasugrel hydrochloride, 5-[(1RS)-2-cyclopropyl-1-(2-fluorophenyl)-2-oxoethyl]-4,5,6,7-tetrahydrothieno [3,2-c] pyridin-2-yl acetate hydrochloride]
